Results on 2 compounds are retold here after article PMC4363092 (Journal of medicinal chemistry, 2014).

One series has as its target T1, human NTPDase3 (Homo sapiens, UniProt O75355).
T1 sequence (O75355 1-529): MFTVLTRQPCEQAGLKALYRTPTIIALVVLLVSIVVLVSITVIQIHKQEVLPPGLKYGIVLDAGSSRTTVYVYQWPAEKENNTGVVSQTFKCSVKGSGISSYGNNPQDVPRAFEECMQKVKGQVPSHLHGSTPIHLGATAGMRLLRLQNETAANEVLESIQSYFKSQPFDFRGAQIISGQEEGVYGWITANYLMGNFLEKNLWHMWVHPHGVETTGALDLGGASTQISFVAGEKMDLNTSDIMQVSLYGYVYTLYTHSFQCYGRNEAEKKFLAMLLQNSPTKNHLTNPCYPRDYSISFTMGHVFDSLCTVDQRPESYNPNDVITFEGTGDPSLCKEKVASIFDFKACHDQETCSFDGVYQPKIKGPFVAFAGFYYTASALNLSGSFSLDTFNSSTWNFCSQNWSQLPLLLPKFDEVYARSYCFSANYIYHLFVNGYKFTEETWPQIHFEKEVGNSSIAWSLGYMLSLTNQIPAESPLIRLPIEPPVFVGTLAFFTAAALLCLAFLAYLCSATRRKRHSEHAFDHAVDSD
Conditions: analogue 100 μM as substrate; activity with 100 μM ATP set as 100%.

The target in series [1] is T2, TNAP (Homo sapiens, UniProt P05186).
T2 sequence (P05186 18-502 limits assumed): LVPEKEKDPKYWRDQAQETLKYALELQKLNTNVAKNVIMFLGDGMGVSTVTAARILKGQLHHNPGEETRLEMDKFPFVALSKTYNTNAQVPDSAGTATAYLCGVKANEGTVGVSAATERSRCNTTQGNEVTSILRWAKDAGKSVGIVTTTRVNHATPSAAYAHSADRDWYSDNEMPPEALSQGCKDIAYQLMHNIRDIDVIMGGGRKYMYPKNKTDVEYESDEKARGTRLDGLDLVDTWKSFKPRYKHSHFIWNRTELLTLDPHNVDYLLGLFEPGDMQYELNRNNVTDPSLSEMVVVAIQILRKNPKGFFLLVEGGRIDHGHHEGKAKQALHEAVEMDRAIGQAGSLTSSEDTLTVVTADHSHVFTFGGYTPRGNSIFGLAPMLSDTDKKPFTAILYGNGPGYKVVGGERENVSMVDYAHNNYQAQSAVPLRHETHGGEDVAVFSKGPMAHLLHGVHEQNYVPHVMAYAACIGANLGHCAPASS
In words: TNAP stability assay: hydrolysis by TNAP. It counts as in vitro ADME. The conditions noted are these: 1 h, pH 9, 100 μM (data not shown).

For another series, the target named is T3, human NTPDase8 (Homo sapiens, UniProt Q5MY95).
T3 sequence (Q5MY95 1-495): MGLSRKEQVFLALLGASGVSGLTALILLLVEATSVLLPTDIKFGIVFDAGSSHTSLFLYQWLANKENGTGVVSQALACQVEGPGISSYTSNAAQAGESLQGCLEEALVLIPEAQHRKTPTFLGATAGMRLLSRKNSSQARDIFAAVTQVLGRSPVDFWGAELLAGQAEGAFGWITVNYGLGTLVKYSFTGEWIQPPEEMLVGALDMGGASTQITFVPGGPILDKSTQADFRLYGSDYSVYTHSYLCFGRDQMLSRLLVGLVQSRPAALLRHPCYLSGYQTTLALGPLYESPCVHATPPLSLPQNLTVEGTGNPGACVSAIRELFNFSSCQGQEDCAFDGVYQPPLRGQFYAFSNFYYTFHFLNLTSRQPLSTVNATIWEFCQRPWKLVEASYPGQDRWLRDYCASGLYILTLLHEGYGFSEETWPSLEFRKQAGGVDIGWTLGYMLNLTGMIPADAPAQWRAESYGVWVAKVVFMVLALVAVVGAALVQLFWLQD
Conditions: analogue 100 μM as substrate; activity with 100 μM ATP set as 100%.

The target of the next series is T4, human NTPDase1 (Homo sapiens, UniProt P49961).
T4 sequence (P49961 1-510): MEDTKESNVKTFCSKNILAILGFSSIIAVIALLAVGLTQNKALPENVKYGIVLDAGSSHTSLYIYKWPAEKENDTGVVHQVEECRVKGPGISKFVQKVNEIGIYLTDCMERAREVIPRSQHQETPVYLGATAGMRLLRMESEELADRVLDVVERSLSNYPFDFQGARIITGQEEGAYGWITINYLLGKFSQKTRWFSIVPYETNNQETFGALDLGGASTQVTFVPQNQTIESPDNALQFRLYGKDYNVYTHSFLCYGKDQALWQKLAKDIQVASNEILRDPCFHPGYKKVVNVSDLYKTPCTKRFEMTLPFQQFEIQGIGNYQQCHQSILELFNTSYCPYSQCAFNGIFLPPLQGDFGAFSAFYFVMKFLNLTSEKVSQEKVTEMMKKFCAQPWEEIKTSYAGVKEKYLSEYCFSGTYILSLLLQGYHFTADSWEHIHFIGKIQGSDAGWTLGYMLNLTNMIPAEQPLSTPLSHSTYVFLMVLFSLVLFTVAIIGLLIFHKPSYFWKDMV
Conditions: analogue 100 μM as substrate; activity with 100 μM ATP set as 100%.

The next series addresses P2Y2 receptor (Homo sapiens, UniProt P41231). In words: [Ca2+]i response in 1321N1 astrocytoma cells expressing GFP-P2Y2 receptor. It counts as cell-based. The conditions noted are these: for agonist activity at P2Y2R: 100 μM; for inhibition of the typical response to UTP at P2Y2R: 1321N1 cells (data not shown).
The target in another series is T5, human NTPDase2 (Homo sapiens, UniProt Q9Y5L3).
T5 sequence (Q9Y5L3 1-495): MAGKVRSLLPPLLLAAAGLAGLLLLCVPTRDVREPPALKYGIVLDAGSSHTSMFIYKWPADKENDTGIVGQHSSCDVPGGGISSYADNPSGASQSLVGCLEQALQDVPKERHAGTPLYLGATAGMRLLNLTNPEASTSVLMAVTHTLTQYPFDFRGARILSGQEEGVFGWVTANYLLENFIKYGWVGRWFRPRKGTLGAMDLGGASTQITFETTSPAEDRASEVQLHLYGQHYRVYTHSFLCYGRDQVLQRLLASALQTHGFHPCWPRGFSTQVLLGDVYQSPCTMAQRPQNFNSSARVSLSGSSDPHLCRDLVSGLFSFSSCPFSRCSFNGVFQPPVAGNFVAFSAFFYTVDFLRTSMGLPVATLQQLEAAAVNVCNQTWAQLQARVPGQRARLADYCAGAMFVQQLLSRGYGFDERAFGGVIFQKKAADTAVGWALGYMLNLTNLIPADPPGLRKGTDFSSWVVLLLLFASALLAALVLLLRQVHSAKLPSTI
The conditions noted are these: analogue 100 μM as substrate; activity with 100 μM ATP set as 100%.

Series [2] addresses T2, TNAP. In words: Inhibition of TNAP activity. In kind it is biochemical. The conditions noted are these: analogue 100 μM.

Structures are written as SMILES.

Sequence of P2Y2 receptor (P41231 whole entry): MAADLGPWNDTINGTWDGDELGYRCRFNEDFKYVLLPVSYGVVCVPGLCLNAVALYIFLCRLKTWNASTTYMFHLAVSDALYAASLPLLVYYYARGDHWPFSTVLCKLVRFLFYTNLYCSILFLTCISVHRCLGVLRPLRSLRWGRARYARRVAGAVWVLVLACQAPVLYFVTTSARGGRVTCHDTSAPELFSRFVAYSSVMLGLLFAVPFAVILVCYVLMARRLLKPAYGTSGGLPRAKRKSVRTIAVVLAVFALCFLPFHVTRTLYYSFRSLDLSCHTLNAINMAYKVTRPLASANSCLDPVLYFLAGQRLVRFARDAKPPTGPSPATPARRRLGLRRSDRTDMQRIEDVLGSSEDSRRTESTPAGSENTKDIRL

Consider `Nc1ncnc2c1ncn2[C@@H]1O[C@H](COP(=O)(O)CP(=O)(O)OP(O)(O)=S)[C@@H](O)[C@H]1O` [compound 3], for which, on human NTPDase3, the “relative activity (%) ± SD of ATP hydrolysis, NTPDase3” value worked out at 4.8 ± 0.2%. Besides, the “hydrolysis by TNAP” value on TNAP [1] was 2.5%. Also, at human NTPDase8, the “relative activity (%) ± SD of ATP hydrolysis, NTPDase8” value was 5.2 ± 0.2%. Further, on human NTPDase1, the “relative activity (%) ± SD of ATP hydrolysis, NTPDase1” value was found to be 5.3 ± 0.2%. At P2Y2 receptor, the “agonist activity at P2Y2R” value is “no activity” and the “inhibition of the typical response to UTP at P2Y2R” value is “did not inhibit”. Moreover, the “relative activity (%) ± SD of ATP hydrolysis, NTPDase2” value on human NTPDase2 came out at 4.7 ± 0.2%. Besides, the “inhibition of TNAP” value on TNAP [2] is recorded as 8–17%.

Consider `Nc1ncnc2c1ncn2[C@@H]1O[C@H](CO[P@](O)(=S)OP(=O)(O)C(Cl)(Cl)P(=O)(O)O)[C@@H](O)[C@H]1O` [2a], for which, on human NTPDase3, the “relative activity (%) ± SD of ATP hydrolysis, NTPDase3” value was 5.2 ± 0.2%. Also, at TNAP [1], the “hydrolysis by TNAP” value is reported as “fully stable”. The “relative activity (%) ± SD of ATP hydrolysis, NTPDase8” value on human NTPDase8 was determined as 4.3 ± 0.1%. Also, the “relative activity (%) ± SD of ATP hydrolysis, NTPDase1” value at human NTPDase1 worked out at 5.3 ± 0.2%. On P2Y2 receptor, the “agonist activity at P2Y2R” value is reported as “no activity” and the “inhibition of the typical response to UTP at P2Y2R” value is on record as “did not inhibit”. The “relative activity (%) ± SD of ATP hydrolysis, NTPDase2” value on human NTPDase2 was determined as 5.2 ± 0.1%. Besides, the “inhibition of TNAP” value on TNAP [2] is recorded as 8–17%.
